Laboratory results reported in publication PMC10202292, “The exquisite specificity of human protein arginine methyltransferase 7 (PRMT7) toward Arg-X-Arg sites” (PLOS ONE, 2023).
Read-outs that look alike come from different tables or passages of the source. No end group written: not given here.

Assays:
GST-HsPRMT7 [1] = biological target: T1, GST-HsPRMT7 (Homo sapiens, UniProt Q9NVM4); assay: Michaelis-Menten kinetics of peptide substrate methylation (P81 phosphocellulose paper assay); assay type: biochemical; design: key to Vmax, Michaelis-Menten best-fit value, Fig7 / Vmax, Michaelis-Menten best-fit value, Fig8: Vmax expressed as cpm (averages of cycles 2–4); conditions: for Km / Vmax, Michaelis-Menten best-fit value, Fig7 / Vmax, Michaelis-Menten best-fit value, Fig8: 60 min, 25°C; for change of Vmax after adding 130 mM KCl: with vs without 130 mM KCl (Fig 8, Table 2), in words; for Vmax, times lower than RKR: experiments of Fig 7, relative to RKR peptide
T1 construct: full-length human PRMT7 (residues 1–692); 34693; host or cells: E. coli BL21 DE3
T1 sequence (Q9NVM4 1-692): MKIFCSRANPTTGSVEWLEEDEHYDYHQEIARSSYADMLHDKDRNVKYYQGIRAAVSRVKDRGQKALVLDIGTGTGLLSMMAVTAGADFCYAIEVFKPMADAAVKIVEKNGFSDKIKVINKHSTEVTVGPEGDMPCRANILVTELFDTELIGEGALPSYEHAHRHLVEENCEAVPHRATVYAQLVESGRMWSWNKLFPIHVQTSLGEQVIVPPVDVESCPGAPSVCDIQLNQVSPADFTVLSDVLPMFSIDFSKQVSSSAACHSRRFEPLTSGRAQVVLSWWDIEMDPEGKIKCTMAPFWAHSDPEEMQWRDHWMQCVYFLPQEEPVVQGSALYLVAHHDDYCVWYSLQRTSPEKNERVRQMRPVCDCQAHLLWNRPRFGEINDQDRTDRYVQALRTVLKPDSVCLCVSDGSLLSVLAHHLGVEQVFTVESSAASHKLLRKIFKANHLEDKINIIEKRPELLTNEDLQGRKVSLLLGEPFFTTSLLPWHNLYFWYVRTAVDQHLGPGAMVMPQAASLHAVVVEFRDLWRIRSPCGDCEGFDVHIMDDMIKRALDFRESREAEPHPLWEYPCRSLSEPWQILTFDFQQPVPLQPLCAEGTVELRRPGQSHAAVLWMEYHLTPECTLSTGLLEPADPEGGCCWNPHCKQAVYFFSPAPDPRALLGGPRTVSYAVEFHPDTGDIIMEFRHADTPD
Procedure: (§1) In vitro methylation assays were performed with GST-HsPRMT7, the indicated substrate protein or peptide, and 1.4 μM S-adenosyl-L-[methyl-^3H]methionine ([^3H]-AdoMet; PerkinElmer cat no. NET155V), prepared from diluting a stock of 7.0 μM [^3H]-AdoMet (81.9 Ci/mmol, 1 mCi/mL in 9:1 10 mM H2SO4:EtOH, v/v) in 10 mM HCl. All reactions were performed using distilled water buffered with 50 mM potassium HEPES, pH 9.5 and 1 mM DTT, reaching a final reaction volume of 30 μL. The reactions were initiated by adding [^3H]-AdoMet to a final concentration of 0.14 μM. Control reactions (enzyme-only, substrate-only) contained distilled water instead of substrate or GST-HsPRMT7, respectively. After initiation with [^3H]-AdoMet, all reactions analyzed via P81 phosphocellulose filter paper assay were incubated in a water bath at 25°C unless otherwise indicated for the specified time periods and were terminated with 0.5 μL 100% (w/v) trifluoroacetic acid (TFA). P81 assays performed at t = 0 were individually terminated immediately following initiation. Samples analyzed via SDS-PAGE were incubated at 4°C for 24 hours and were quenched by adding 5x SDS sample loading buffer (250 mM Tris-HCl, pH 6.8; 10% SDS, 30% glycerol, 10% β-mercaptoethanol, 0.2% bromophenol blue), followed by heating at 97°C for 3 min.
(§2) In vitro methylation assays with GST-HsPRMT7, selected methyl-accepting substrates, and [^3H]-AdoMet were set up as described previously and performed in triplicate. Following incubation at 25°C unless otherwise indicated for the time periods specified, all samples were quenched with 0.5 μL 100% TFA and centrifuged at 9,300 g for 10 seconds in an Eppendorf centrifuge (Model 5417C). 1 cm^2 pieces of P81 phosphocellulose filter paper (LabAlley catalog no. 05-717-2A) were spotted with 25 μL from each reaction mixture and set to dry overnight. The following day, all filter paper pieces were washed three times with 50 mM sodium bicarbonate solution, pH 9.0, and dried again in liquid scintillation vials. After 5 mL of Safety Solve fluor (RPI industries) was added to each vial, [^3H] radioactivity in each sample was quantified via liquid scintillation counter (Beckman LS6500) for four total cycles at 5 minutes per sample. All data presented are expressed as averages of the cpm from cycles 2–4.
(§3) Statistical analyses were performed using the “Analyze Data” function on GraphPad Prism v.8.0.1. To determine statistical significance, unpaired homoscedastic two-tailed Student’s t tests were performed with significance level α = 0.05 with the relevant data. To obtain apparent km and Vmax values, kinetic data were analyzed by non-linear regression using the Michaelis-Menten equation.

GST-HsPRMT7 [2] = biological target: T1, GST-HsPRMT7; assay: P81 phosphocellulose filter paper methylation assay with peptide substrates (cpm, end point and time course); assay type: biochemical; conditions: for methylation activity compared with enzyme-only control: 0-120 min time course (Fig 6); for Difference between means ± SEM vs GST-HsPRMT7 + 10 uM Hs H2B (23-37), Fig5: 10 uM peptide, 4°C
Procedure: as §1, §2, §3

human PRMT7 = conditions: relative to unsubstituted peptide; cited from earlier work
Procedure: Comparatively, a previous study of ionic strength in human HEK293 cells estimates the intracellular concentration of potassium ions to be about 120–140 mM in human cells. As such, our results in Fig 7 led us to question whether this dramatic decrease in activity may be associated with a loss of either substrate-enzyme binding affinity or catalytic activity. || We confirm that human PRMT7 activity is quite sensitive to changes in the RXR target sequence in the substrate protein. […] The exquisite specificity of PRMT7 toward the basic RXR motif can be contrasted to the much broader speci ...

[3] = + 130 mM KCl, 5 μg GST-HsPRMT7, 0.14 μM [3H]-AdoMet, GraphPad Prism fit, read-out: Km, Michaelis-Menten best-fit value, Fig8
[4] = +130 mM KCl, apparent km, 5 μg GST-HsPRMT7, various peptide concentrations, 0.14 μM [3H]-AdoMet, pH 9.5, Michaelis-Menten fit, triplicates (Fig 8), read-out: km
[5] = no added salt, 5 μg GST-HsPRMT7, 0.14 μM [3H]-AdoMet, GraphPad Prism fit
[6] = no added salt, 5 μg GST-HsPRMT7, 0.14 μM [3H]-AdoMet, GraphPad Prism fit, read-out: Km, Michaelis-Menten best-fit value, Fig7
[7] = no added salt, apparent km of peptide substrate, 5 μg GST-HsPRMT7, various peptide concentrations, 0.14 μM [3H]-AdoMet, pH 9.5, Michaelis-Menten fit, triplicates (Fig 8), read-out: km
[8] = no salt, 5 μg GST-HsPRMT7, 0.14 μM [3H]-AdoMet, GraphPad Prism fit
[9] = no salt, 5 μg GST-HsPRMT7, 0.14 μM [3H]-AdoMet, GraphPad Prism fit, read-out: Km, Michaelis-Menten best-fit value, Fig8
[10] = 10 μM peptide, 5 μg GST-HsPRMT7, 25°C, in words
[11] = from Table 2, no added salt, response to reviewers, RGG peptide apparently = Mono R
[12] = no added salt, 5 μg GST-HsPRMT7, 0.14 μM [3H]-AdoMet, experiments of Fig 7, read-out: apparent km (binding affinities), Fig 7

Substance	Km (GST-HsPRMT7 [1]; [3])	Km (GST-HsPRMT7 [1]; [4])	Vmax, Michaelis-Menten best-fit value, Fig7 (GST-HsPRMT7 [1]; [5])	Km (GST-HsPRMT7 [1]; [6])	Km (GST-HsPRMT7 [1]; [7])	Vmax, Michaelis-Menten best-fit value, Fig8 (GST-HsPRMT7 [1]; [8])	Km (GST-HsPRMT7 [1]; [9])	change of Vmax after adding 130 mM KCl (GST-HsPRMT7 [1])	PRMT7 activity with substituted human histone H2B (23–37) peptides (human PRMT7)	also measured
Ac-KKGKRGRGGKKY-NH2 [synthetic RXR peptide with an additional lysine before the RGR motif]	3.35 µM	3.3 µM	1553	0.895 µM	0.6 µM	1150	0.601 µM	up to an approximately three-fold decrease		
KKDGKKRRKSRKESY [Xl H2B (23–37), synthetic peptide of amino acids 23–37 of Xenopus laevis histone H2B, containing 29-RRKSR-33]										GST-HsPRMT7 methylation activity (GST-HsPRMT7 [2]; 10 μM peptide, 5 μg GST-HsPRMT7, 0.14 μM [3H]-AdoMet, 40 min, 25°C (Fig 3), in words): no significant methylation activity over background; methylation activity compared with enzyme-only control (GST-HsPRMT7 [2]; [10]): low methylation activity but was significantly above control; methylation by human PRMT7 (GST-HsPRMT7 [2]; 10 and 50 μM peptide, 5 μg GST-HsPRMT7, 25°C, 0-3 h time course (Fig 4), in words): methylated by human PRMT7, albeit at low levels; Mean of GST-HsPRMT7 + peptide, Fig3 (GST-HsPRMT7 [2]; mean of n = 3, 10 μM peptide, 40 min, 25°C): 98.42 cpm; Difference between means ± SEM vs peptide only, Fig3 (GST-HsPRMT7 [2]; n = 3, 10 μM peptide, 40 min, 25°C, SEM): 28.16 ± 17.00 cpm
R29K: human histone H2B (23–37) peptide with R29K substitution, from ref 11 (KKDGKKKKRSRKESY; not fully specified (N-terminus, C-terminus); UniProt P62807 24-38, looked up, variant R29K)									at least a two-thirds reduction	
Ac-KKGGRKRGGKKY-NH2 [synthetic RXR peptide with lysine within the motif]	6.88 µM	6.9 µM	1749	0.759 µM	0.6 µM	1716	0.553 µM	up to an approximately three-fold decrease		
R31K-substituted human H2B (23–37): R31K-substituted human H2B (23–37) peptide, from ref 11 (KKDGKKRKKSRKESY; not fully specified (N-terminus, C-terminus); UniProt P62807 24-38, looked up, variant R31K)									no methyl-accepting activity	
Ac-KKGGRGRKGKKY-NH2 [synthetic RXR peptide with an additional lysine after the RGR motif]	2.43 µM	2.4 µM	1042	0.5 µM	0.5 µM	969.7	0.514 µM	up to an approximately three-fold decrease		
R33K: human histone H2B (23–37) peptide with R33K substitution, from ref 11 (KKDGKKRKRSKKESY; not fully specified (N-terminus, C-terminus); UniProt P62807 24-38, looked up, variant R33K)									at least a two-thirds reduction	
Ac-KKGGRGRGGKKY-NH2 [synthetic peptide with an RGR motif flanked by glycine and lysine residues]	6.21 µM	6.2 µM	1036	0.682 µM	0.7 µM	2435	0.743 µM	up to an approximately three-fold decrease		methylation activity (maximum value) (GST-HsPRMT7 [2]; 10 μM peptide, 5 μg GST-HsPRMT7, 0.14 μM [3H]-AdoMet, 25°C, t = 120 min (Fig 6), approximate): about 800 cpm; decrease of PRMT7 activity relative to human H2B (23–37) (GST-HsPRMT7 [2]; 10 μM peptide, 5 μg GST-HsPRMT7, 0.14 μM [3H]-AdoMet, 20 h, 4°C (Fig 5)): 4 to 5 fold; Difference between means ± SEM vs GST-HsPRMT7 + 10 uM Hs H2B (23-37), Fig5 (GST-HsPRMT7 [2]; 20 h, n = 3, SEM): -2852 ± 662.1 cpm; Vmax relative to the RGG peptide (GST-HsPRMT7 [1]; [11]): about 2.5 fold; apparent km relative to the RGG peptide (GST-HsPRMT7 [1]; [11]): about half
Ac-KKGGRGGGGKKY-NH2 [Mono R, synthetic peptide with a single arginine flanked by glycine and lysine residues]	0.28 µM		262.6	0.223 µM	1.4 µM	993.4	1.42 µM			PRMT7 methylation activity (GST-HsPRMT7 [2]; 10 μM peptide, 5 μg GST-HsPRMT7, 0.14 μM [3H]-AdoMet, 20 h, 4°C (Fig 5), in words): barely detectable over the PRMT7-only control; methylation activity compared with enzyme-only control (GST-HsPRMT7 [2]; [10]): not significantly greater than control; Difference between means ± SEM vs GST-HsPRMT7 + 10 uM Hs H2B (23-37), Fig5 (GST-HsPRMT7 [2]; 20 h, n = 3, SEM): -4140 ± 625.1 cpm; Vmax, times lower than RKR (GST-HsPRMT7 [1]): 5–6 times; Km (GST-HsPRMT7 [1]; [12]): 1.4 µM
Ac-KKGGRERGGKKY-NH2 [synthetic RXR peptide with glutamate within the motif]			299.5	0.192 µM	2.8 µM	752.7	2.79 µM			Vmax, times lower than RKR (GST-HsPRMT7 [1]): 5–6 times; Km (GST-HsPRMT7 [1]; [12]): 2.8 µM
